Reference: paper PMC11595689, “Aeruginosin 525 (AER525) from Cyanobacterium Aphanizomenon Sp. (KUCC C2): A New Serine Proteases Inhibitor” (Marine Drugs, 2024)
Entries after “also recorded” stand apart in the source; their conditions may differ.

Tests used:
chymotrypsin = molecular target: T1, chymotrypsin (Bos taurus, UniProt P00766); experiment: Chymotrypsin inhibition assay; type: biochemical; conditions: highest concentration 45 µg mL^−1
T1 construct: purchased Sigma Aldrich
Description: (§1) The enzyme inhibitory activity of fractions and AER525 was tested against trypsin [55], chymotrypsin [56], thrombin [56], elastase, and carboxypeptidase A [56]. For full details on trypsin, chymotrypsin, thrombin, and elastase inhibition assay refer to the work of Overlingė et al.. In the carboxypeptidase A assay, the final concentration of the enzyme was 1.6 µM, N-(4-methoxy-phenyl-azoformyl)-Phe-OH (GLPBIO Technology LLC; Montclair, CA, USA) at a concentration of 0.2 mg mL^−1 served as a substrate, and the carboxypeptidase inhibitor from potato tuber was used at a concentration range of 2.5–150 µg mL^−1. Mixtures containing the sample (10 µL) or inhibitor (10 µL) were preincubated with the enzyme (10 µL) and buffer (160 µL; 50 mM Tris-HCl at pH 7.5) at 25 °C. After 10 min, the substrate (20 µL) was added, and the reaction mixture was incubated for another 10 min at 25 °C. The absorbance of the solutions was measured at 350 nm with the application of a microplate reader (Varioskan Flash, Thermo Fisher Scientific OY, Vantaa, Finland). All enzymes were from Sigma Aldrich (St. Louis, MO, USA); 1% v/v DMSO was used to dissolve fractions at final concentrations of 45 µg mL^−1, while for pure AER525, it was additionally serially diluted to 45, 4.5, 0.45, and 0.045 µg mL^−1. […]

elastase = experiment: Elastase inhibition assay; type: biochemical; conditions: highest concentration 45 µg mL^−1
Description: as §1

thrombin = molecular target: T2, thrombin (Homo sapiens, UniProt P00734); experiment: Thrombin inhibition assay; type: biochemical
T2 construct: purchased Sigma Aldrich
Description: as §1

[1] = ref [10],[11]; cited from earlier work
Excerpt: (§2) In addition to the nutritional properties of Aphanizomenon, assessed mainly based on the analyses of extracts, there are several studies showing that the cyanobacterium produces metabolites of significant biological activities.

[2] = tested on: human cytosolic enzyme which is involved both in tumor progression and phytochemical bioavailability; conditions: ref [12]; cited from earlier work
Excerpt: as §2

## CC(C)C[C@@H](NC(=O)[C@@H](N)CO)C(=O)N1[C@H](C(=O)N[C@H](C=O)CCCNC(=N)N)C[C@@H]2CC[C@@H](O)C[C@@H]21 [AER525]
chymotrypsin
  activity against chymotrypsin (in words): no effect
elastase
  activity against elastase (in words): no effect; also recorded: No activity
elastase; triplicates
  Elastase enzyme inhibition (IC50): - (not active (inhibition below 10%))
thrombin
  activity against thrombin (in words): potent activity; also recorded: strong thrombin-inhibitory activity
  potency of thrombin inhibition, AER525 compared with dysinosin D (in words): comparable potency

## NCCc1ccccc1 [β-phenylethylamine]
[1]
  alleviating depression and anxiety symptoms (in words): showed effectiveness in alleviating depression and anxiety symptoms
[2]
  inhibition of the human cytosolic enzyme (in words): acted as inhibitors

## phycocyanobilin
[1]
  alleviating depression and anxiety symptoms (in words): showed effectiveness in alleviating depression and anxiety symptoms
[2]
  inhibition of the human cytosolic enzyme (in words): acted as inhibitors
